The term GI50 denotes the concentration at which growth is held to half of that of the control. A word on the IC50: it is the point on the concentration scale where inhibition reaches its midpoint. As usually defined, the EC50 is the concentration needed to bring the measured effect to its halfway point.

Values after ≈ are worked out from the molar mass of the structure shown.

Series [1] relates to AGS. The series can be described thus: Growth inhibition of human AGS cells assessed as reduction in cell viability measured after 3 days by CCK-8 assay. Type of series: functional. To be noted: 72 h, time 3 day. A general note: Tetrazolium assays rely on reduction of a dye to a coloured formazan, in cell work by metabolically active cells.
Series [2] has as its system KATO III stomach cancer cell line. The series can be described thus: Growth inhibition of human KATO III stomach cancer cell line assessed as reduction in cell viability measured after 3 days by CCK-8 assay. Type of series: functional. The conditions noted are these: 72 h, time 3 day.
Series [3] relates to SNU1. In words: Growth inhibition of human SNU1 cells assessed as reduction in cell viability measured after 3 days by CCK-8 assay. In kind it is functional. The conditions noted are these: SNU1, 72 h, time 3 day.
The subject of series [4] is SK-OV-3. The series can be described thus: Growth inhibition of human SK-OV-3 cells assessed as reduction in cell viability measured after 3 days by CCK-8 assay. In kind it is functional. The conditions noted are these: SK-OV-3, 72 h, time 3 day.
In series [5] the test system is OVCAR-8. In words: Growth inhibition of human OVCAR-8 cells assessed as reduction in cell viability measured after 3 days by CCK-8 assay. Type of series: functional. The conditions noted are these: OVCAR-8, 72 h, time 3 day.
Series [6] relates to BXPC-3. The series can be described thus: Growth inhibition of human BXPC-3 cells assessed as reduction in cell viability measured after 3 days by CCK-8 assay. The conditions noted are these: BXPC-3, 72 h, time 3 day. Type of series: functional.
Series [7] concerns PANC-1. The series can be described thus: Growth inhibition of human PANC-1 cells assessed as reduction in cell viability measured after 3 days by CCK-8 assay. In kind it is functional. To be noted: PANC-1, 72 h, time 3 day.
The subject of series [8] is T-24. The series can be described thus: Growth inhibition of human T24 cells assessed as reduction in cell viability measured after 3 days by CCK-8 assay. Type of series: functional. The conditions noted are these: T-24, 72 h, time 3 day.
Series [9] deals with WiDr. The series can be described thus: Growth inhibition of human WiDr cells assessed as reduction in cell viability measured after 3 days by CCK-8 assay. In kind it is functional. To be noted: 72 h, time 3 day.
For series [10], the system named is HepG2. The series can be described thus: Growth inhibition of human HepG2 cells assessed as reduction in cell viability measured after 3 days by CCK-8 assay. Type of series: functional. The conditions noted are these: HepG2, 72 h, time 3 day.
Series [11] deals with SN12C. The series can be described thus: Growth inhibition of human SN12C cells assessed as reduction in cell viability measured after 3 days by CCK-8 assay. Type of series: functional. The conditions noted are these: 72 h, time 3 day.
Series [12] has as its system K562. The series can be described thus: Growth inhibition of human K562 cells assessed as reduction in cell viability measured after 3 days by CCK-8 assay. To be noted: K562, 72 h, time 3 day. Type of series: functional.
In series [13] the test system is HeLa. The series can be described thus: Growth inhibition of human HeLa cells assessed as reduction in cell viability measured after 3 days by CCK-8 assay. Type of series: functional. To be noted: 72 h, time 3 day.
Series [14] concerns HeLa. In words: Antiproliferative activity against human HeLa cells assessed as inhibition of cell growth incubated for 72 hrs by MTT assay. Type of series: functional, cell-based.
Series [15] relates to MCF7. The series can be described thus: Cytotoxicity against human MCF7 cells assessed as reduction in cell growth by MTT assay. Type of series: functional, cell-based.
Series [16] relates to DLD-1. In words: Anticancer activity against human DLD-1 cells assessed as reduction in cell viability. In kind it is functional, cell-based.
In series [17] the test system is HeLa. The series can be described thus: Antiproliferative activity against human HeLa cells assessed as reduction in cell viability. In kind it is functional, cell-based.
Series [18] has as its system MDA-MB-231. In words: Cytotoxicity against human MDA-MB-231 cells assessed as cell growth inhibition by SRB assay. In kind it is functional, cell-based. For orientation: The SRB assay estimates cell density from bound dye.
Series [19] relates to MDA-MB-231. The series can be described thus: Cytotoxicity against human MDA-MB-231 cells assessed as cell growth inhibition incubated for 72 hrs by MTT colorimetric assay. In kind it is functional, cell-based. To be noted: MDA-MB-231, 72 h.
In series [20] the test system is A549. The series can be described thus: Cytotoxicity against human A549 cells assessed as cell growth inhibition incubated for 72 hrs by MTT colorimetric assay. In kind it is functional, cell-based. To be noted: A549, 72 h.
Series [21] deals with K562. The series can be described thus: Cytotoxicity against human K562 cells assessed as cell growth inhibition incubated for 72 hrs by MTT colorimetric assay. In kind it is functional, cell-based. The conditions noted are these: K562, 72 h.
The test system of series [22] is HeLa. The series can be described thus: Cytotoxicity against human HeLa cells assessed as cell growth inhibition incubated for 72 hrs by MTT colorimetric assay. Type of series: functional, cell-based.
Series [23] addresses Cyclin-dependent kinase inhibitor 1 (p21) (human) (UniProt P38936). The series can be described thus: Upregulation of p21 gene expression in human HeLa cells assessed fold increase by RT-PCR analysis.
In series [24] the test system is A549. In words: Cytotoxicity against human A549 cells assessed as reduction in cell growth by MTT assay. Type of series: functional, cell-based.
In series [25] the test system is MDA-MB-231. In words: Anticancer activity against human MDA-MB-231 cells assessed as reduction in cell viability measured after 72 hrs by MTT assay. In kind it is functional, cell-based. To be noted: MDA-MB-231, 72 h.
The subject of series [26] is HepG2. The series can be described thus: Anticancer activity against human HepG2 cells assessed as reduction in cell viability. Type of series: functional, cell-based.
Series [27] relates to HeLa. The series can be described thus: Antitumor activity against human HeLa cells assessed as inhibition of cell growth by MTT assay. In kind it is functional, cell-based.
Series [28] in a line: Cytotoxicity against green monkey COS-7 cells. In kind it is toxicity, cell-based. To be noted: green monkey (Chlorocebus aethiops).
The test system of series [29] is HeLa. The series can be described thus: Cytotoxicity against human HeLa cells assessed as reduction in cell growth by MTT assay. In kind it is functional, cell-based.
Series [30] deals with MCF7. The series can be described thus: Cytotoxicity against human MCF7 cells assessed as reduction in cell growth measured after 48 hrs by MTT assay. In kind it is functional, cell-based. To be noted: MCF7, 48 h.
Series [31] deals with HeLa. The series can be described thus: Cytotoxicity against human HeLa cells assessed as reduction in cell growth measured after 48 hrs by MTT assay. Type of series: functional, cell-based.
Series [32] concerns A549. In words: Cytotoxicity against human A549 cells assessed as reduction in cell growth measured after 48 hrs by MTT assay. The conditions noted are these: A549, 48 h. In kind it is functional, cell-based.
For series [33], the system named is DU-145. In words: Anticancer activity against human DU-145 cells assessed as cell growth inhibition. Type of series: functional, cell-based.
Series [34] is described as follows: Anticancer activity against human SK-MEL-128 cells assessed as cell growth inhibition. Type of series: functional, cell-based.
Series [35] has as its system A549. In words: Antiproliferative activity against human A549 cells assessed as reduction in cell viability by MTS assay. In kind it is functional, cell-based.
The subject of series [36] is BT-20. The series can be described thus: Anticancer activity against human BT-20 cells assessed as cell growth inhibition. Type of series: functional, cell-based.

As for `CCN(CC)c1ccc2cc(-c3nc4ccccc4n3C)c(=O)oc2c1`, the GI50 in series [1], in series [2], in series [3], in [4], in [5] and in series [6] was below 410 nM each time. Besides, the GI50 in series [7], in series [8], in series [9], in [10], in [11] and in series [12] was below 410 nM in each case. Further, in series [13], the GI50 is below 410 nM.
As to `Cc1nn(-c2ccccc2)c(=O)n1-n1c(-c2cc3ccccc3oc2=O)cs/c1=N\c1ccc(Cl)cc1`, the IC50 in [14] was 210 nM.
Consider `Cc1c(Cc2ccc(NC(=O)Nc3ccc(Br)cc3)nc2)c(=O)oc2cc(O)c(C(C)(C)C)cc12`, for which the IC50 in [15] is 2560 nM.
With `COc1ccc(/C(C)=N/Nc2ncc(C(=O)c3cc4ccccc4oc3=O)s2)cc1`, the EC50 in series [16] stood at 5790 nM.
For `CCOC(=O)c1sc(N/N=C(\C)c2cc3cc(Br)ccc3oc2=O)nc1C`, the concentration for half-maximal inhibition (IC50) in series [17] worked out at 9 nM.
As for `COc1ccc(-n2nc(C)n(-n3c(-c4cc5ccccc5oc4=O)cs/c3=N\c3ccc(Cl)cc3)c2=O)cc1`, the IC50 in series [18] came out at 160 nM; in series [19], 160 nM; in series [20], 170 nM; in series [21], 310 nM; in [22] it was 250 nM.
Turning to `CCOC(=O)c1sc(N/N=C(\C)c2cc3ccccc3oc2=O)nc1C`, the “fold change (FC)” value in series [23] worked out at 2.3.
With `Cc1c(Cc2ccc(NC(=O)Nc3ccccc3Cl)nc2)c(=O)oc2cc(O)c(C(C)(C)C)cc12`, in series [24], the 50% inhibitory concentration (IC50) turned out to be 4380 nM.
Turning to `COC(=O)c1cc2cc(-c3nc4cc(C)ccn4c3NC(C)(C)C)cc(C(C)C)c2oc1=O`, the concentration for half-maximal inhibition (IC50) in series [25] was 14100 nM.
Turning to `C/C(=N\Nc1ncc(C(=O)c2cc3ccccc3oc2=O)s1)c1ccc(C)cc1`, the half-maximal effective concentration (EC50) in series [26] was 3700 nM.
With `O=c1oc2ccccc2cc1-c1csc(N/N=C/c2c3ccccc3c(Cl)c3ccccc23)n1`, the IC50 in series [27] came out at 1290 nM; in series [28], 1660 nM.
With `Cc1c(Cc2ccc(NC(=O)Nc3cccc(Cl)c3)nc2)c(=O)oc2cc(O)c(C(C)(C)C)cc12`, the half-inhibitory concentration (IC50) in [29] is 2170 nM.
On to `COc1ccc2oc(=O)c(/C=C3\SC(=O)N(C(=O)c4ccc(Cl)cc4)C3=O)cc2c1`, for which the 50% inhibitory concentration (IC50) in [30], in series [31] and in series [32] was 950 nM each time.
With `Nn1c(Cc2ccc(Cl)c(Cl)c2)nn(CC(=O)NNC(=O)c2cc3cc(Cl)ccc3oc2=O)c1=O`, the IC50 in series [33] turned out to be 3.7 µg/mL (≈ 6.88 µM); in [34] it was 12.3 µg/mL (≈ 22.9 µM).
In the case of `Nn1c(Cc2ccc(Cl)cc2)nn(CC(=O)NNC(=O)c2cc3cc(Cl)cc(Cl)c3oc2=O)c1=O`, the half-inhibitory concentration (IC50) in series [35] came to 7.5 µg/mL (≈ 13.9 µM).
As to `Nn1c(Cc2ccccc2Br)nn(CC(=O)NNC(=O)c2cc3cc(Cl)cc(Cl)c3oc2=O)c1=O`, the IC50 in [36] was 6.4 µg/mL (≈ 11 µM).
